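Compound exposure: 48 hours, 5 concentrations, 96-well plates. GI50 marks 50% less growth. The concentration for full growth arrest is given as TGI.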
Legend:
Experiment in all cases: DTP human tumour cell line panel, 48 h
BT-549 breast = system: BT-549 breast
SN12C renal = system: SN12C renal
A549 NSCLC = system: A549 NSCLC
NCI-H460 lung = system: NCI-H460 lung
HS 578T breast = system: HS 578T breast
IGROV1 ovarian = system: IGROV1 ovarian
NCI-H23 lung = system: NCI-H23 lung
LOX IMVI melanoma = system: LOX IMVI melanoma
MALME-3M melanoma = system: MALME-3M melanoma
RPMI-8226 leukemia = system: RPMI-8226 leukemia
K-562 leukemia = system: K-562 leukemia
NCI/ADR-RES ovarian = system: NCI/ADR-RES ovarian
HCT-15 colon = system: HCT-15 colon
EKVX NSCLC = system: EKVX NSCLC
ACHN renal = system: ACHN renal
NCI-H226 lung = system: NCI-H226 lung
TK-10 renal = system: TK-10 renal
OVCAR-5 ovarian = system: OVCAR-5 ovarian
MCF7 breast = system: MCF7 breast
M14 melanoma = system: M14 melanoma
UO-31 renal = system: UO-31 renal
HCT-116 colon = system: HCT-116 colon
COLO 205 colon = system: COLO 205 colon
OVCAR-3 ovarian = system: OVCAR-3 ovarian
SK-MEL-2 melanoma = system: SK-MEL-2 melanoma
786-0 renal = system: 786-0 renal
SNB-75 CNS = system: SNB-75 CNS
SK-OV-3 ovarian = system: SK-OV-3 ovarian
KM12 colon = system: KM12 colon
UACC-62 melanoma = system: UACC-62 melanoma
SF-295 CNS = system: SF-295 CNS
SK-MEL-5 melanoma = system: SK-MEL-5 melanoma
NCI-H522 lung = system: NCI-H522 lung
MDA-MB-435 = system: MDA-MB-435
HT29 colon = system: HT29 colon
HL-60(TB) leukemia = system: HL-60(TB) leukemia
UACC-257 melanoma = system: UACC-257 melanoma
SNB-19 CNS = system: SNB-19 CNS
U251 CNS = system: U251 CNS
OVCAR-4 ovarian = system: OVCAR-4 ovarian
SF-268 CNS = system: SF-268 CNS
OVCAR-8 ovarian = system: OVCAR-8 ovarian
HOP-92 NSCLC = system: HOP-92 NSCLC
MOLT-4 leukemia = system: MOLT-4 leukemia
A498 renal = system: A498 renal
MDA-MB-231 breast = system: MDA-MB-231 breast
SW-620 colon = system: SW-620 colon
T-47D breast = system: T-47D breast
CAKI-1 renal = system: CAKI-1 renal
SF-539 CNS = system: SF-539 CNS
HCC-2998 colon = system: HCC-2998 colon
DU-145 prostate = system: DU-145 prostate
CCRF-CEM leukemia = system: CCRF-CEM leukemia
HOP-62 NSCLC = system: HOP-62 NSCLC
PC-3 prostate = system: PC-3 prostate
SK-MEL-28 melanoma = system: SK-MEL-28 melanoma
RXF 393 renal = system: RXF 393 renal

Cc1c(C(N)=O)sc2c1c(=O)n(Cc1ccccc1)c1nnc(-c3ccc(Br)cc3)n21 gave a GI50 (BT-549 breast) of 3.85 µM, a TGI (BT-549 breast) of 18.9 µM and a GI50 (SN12C renal) of 2.36 µM. The TGI (SN12C renal) was 14.1 µM, the GI50 (A549 NSCLC) was 2.51 µM and the TGI (A549 NSCLC) was 13.1 µM. It also gave a GI50 (NCI-H460 lung) of 0.813 µM, a TGI (NCI-H460 lung) of 6.55 µM and a GI50 (HS 578T breast) of 5.2 µM. For the same molecule, the TGI (HS 578T breast) was 54.9 µM, the GI50 (IGROV1 ovarian) was 2.15 µM and the TGI (IGROV1 ovarian) was 19.2 µM. For the same molecule, the GI50 (NCI-H23 lung) was 3.11 µM, the TGI (NCI-H23 lung) was 15.2 µM and the GI50 (LOX IMVI melanoma) was 1.27 µM. The TGI (LOX IMVI melanoma) was 10.2 µM, the GI50 (MALME-3M melanoma) was 2.94 µM and the TGI (MALME-3M melanoma) was 13.7 µM. It also gave a GI50 (RPMI-8226 leukemia) of 4.72 µM, a TGI (RPMI-8226 leukemia) of 47.7 µM and a GI50 (K-562 leukemia) of 3.09 µM. The TGI (K-562 leukemia) was 20.4 µM, the GI50 (NCI/ADR-RES ovarian) was 2.28 µM and the TGI (NCI/ADR-RES ovarian) was 11.2 µM. The GI50 (HCT-15 colon) was 0.705 µM, the TGI (HCT-15 colon) was 17.9 µM and the GI50 (EKVX NSCLC) was 3.11 µM. For the same molecule, the TGI (EKVX NSCLC) was 21.6 µM, the GI50 (ACHN renal) was 1.46 µM and the TGI (ACHN renal) was 12.3 µM. For the same molecule, the GI50 (NCI-H226 lung) was 2.46 µM, the TGI (NCI-H226 lung) was 9.82 µM and the GI50 (TK-10 renal) was 3.33 µM. It also gave a TGI (TK-10 renal) of 16.3 µM, a GI50 (OVCAR-5 ovarian) of 7.17 µM and a TGI (OVCAR-5 ovarian) of 21.3 µM. It also gave a GI50 (MCF7 breast) of 3.4 µM, a TGI (MCF7 breast) of 14.6 µM and a GI50 (M14 melanoma) of 1.51 µM. The TGI (M14 melanoma) was 3.67 µM, the GI50 (UO-31 renal) was 1.4 µM and the TGI (UO-31 renal) was 11.7 µM. The GI50 (HCT-116 colon) was 1.75 µM, the TGI (HCT-116 colon) was 13.6 µM and the GI50 (COLO 205 colon) was 3.12 µM. The TGI (COLO 205 colon) was 15 µM, the GI50 (OVCAR-3 ovarian) was 2.48 µM and the TGI (OVCAR-3 ovarian) was 16.9 µM. For the same molecule, the GI50 (SK-MEL-2 melanoma) was 5.73 µM, the TGI (SK-MEL-2 melanoma) was 18.7 µM and the GI50 (786-0 renal) was 2.09 µM. For the same molecule, the TGI (786-0 renal) was 5.73 µM, the GI50 (SNB-75 CNS) was 4.44 µM and the TGI (SNB-75 CNS) was 20.9 µM. For the same molecule, the GI50 (SK-OV-3 ovarian) was 2.97 µM, the TGI (SK-OV-3 ovarian) was 16.3 µM and the GI50 (KM12 colon) was 3.31 µM. For the same molecule, the TGI (KM12 colon) was 17.9 µM, the GI50 (UACC-62 melanoma) was 1.78 µM and the TGI (UACC-62 melanoma) was 8.46 µM. It also gave a GI50 (SF-295 CNS) of 1.01 µM, a TGI (SF-295 CNS) of 11.8 µM and a GI50 (SK-MEL-5 melanoma) of 1.47 µM. For the same molecule, the TGI (SK-MEL-5 melanoma) was 4.89 µM, the GI50 (NCI-H522 lung) was 3.13 µM and the TGI (NCI-H522 lung) was 12.9 µM. The GI50 (MDA-MB-435) was 3.49 µM, the TGI (MDA-MB-435) was 20.7 µM and the GI50 (HT29 colon) was 2.32 µM. For the same molecule, the TGI (HT29 colon) was 13.4 µM, the GI50 (HL-60(TB) leukemia) was 4.42 µM and the TGI (HL-60(TB) leukemia) was 38.8 µM. For the same molecule, the GI50 (UACC-257 melanoma) was 3.14 µM, the TGI (UACC-257 melanoma) was 11.8 µM and the GI50 (SNB-19 CNS) was 2.91 µM. For the same molecule, the TGI (SNB-19 CNS) was 17.5 µM, the GI50 (U251 CNS) was 1.56 µM and the TGI (U251 CNS) was 13 µM. For the same molecule, the GI50 (OVCAR-4 ovarian) was 2.51 µM, the TGI (OVCAR-4 ovarian) was 15.8 µM and the GI50 (SF-268 CNS) was 1.4 µM. The TGI (SF-268 CNS) was 13.4 µM, the GI50 (OVCAR-8 ovarian) was 2.21 µM and the TGI (OVCAR-8 ovarian) was 15 µM. The GI50 (HOP-92 NSCLC) was 5.09 µM, the TGI (HOP-92 NSCLC) was 21.3 µM and the GI50 (MOLT-4 leukemia) was 1.64 µM. The TGI (MOLT-4 leukemia) was 17.3 µM, the GI50 (A498 renal) was 2.3 µM and the TGI (A498 renal) was 12.7 µM. For the same molecule, the GI50 (MDA-MB-231 breast) was 0.829 µM, the TGI (MDA-MB-231 breast) was 18.6 µM and the GI50 (SW-620 colon) was 2.98 µM. The TGI (SW-620 colon) was 18.9 µM, the GI50 (T-47D breast) was 3.38 µM and the TGI (T-47D breast) was 18.9 µM. It also gave a GI50 (CAKI-1 renal) of 0.431 µM, a TGI (CAKI-1 renal) of 6.96 µM and a GI50 (SF-539 CNS) of 2.87 µM. For the same molecule, the TGI (SF-539 CNS) was 12.5 µM, the GI50 (HCC-2998 colon) was 1.91 µM and the TGI (HCC-2998 colon) was 14.6 µM. It also gave a GI50 (DU-145 prostate) of 2.32 µM, a TGI (DU-145 prostate) of 14.9 µM and a GI50 (CCRF-CEM leukemia) of 0.805 µM. It also gave a TGI (CCRF-CEM leukemia) of 22.8 µM, a GI50 (HOP-62 NSCLC) of 1.38 µM and a TGI (HOP-62 NSCLC) of 14.4 µM. For the same molecule, the GI50 (PC-3 prostate) was 4.06 µM, the TGI (PC-3 prostate) was 22.3 µM and the GI50 (SK-MEL-28 melanoma) was 4.09 µM. For the same molecule, the TGI (SK-MEL-28 melanoma) was 17.1 µM, the GI50 (RXF 393 renal) was 1.81 µM and the TGI (RXF 393 renal) was 7.15 µM.

Reference: PubChem BioAssay (NCI)
